From ChEMBL document CHEMBL3046898, “Synthesis and characterization of flurbiprofen hydrazide derivatives as potential anti-HCV, anticancer and antimicrobial agents” (2013)
Activity calls are given as the source filed them. The rule behind the calls is not given here.

What was measured:
Staphylococcus aureus [1] = assay: Antibacterial activity against Staphylococcus aureus at 10 mg/ml after 24 hrs by disc diffusion method; format: functional
Salmonella paratyphi [2] = assay: Antibacterial activity against Salmonella paratyphi at 6.25 to 200 ug/ml after 24 hrs by microwell dilution method; format: functional, organism-based; conditions: Salmonella enterica subsp. enterica serovar Paratyphi A
Micrococcus luteus [3] = assay: Antibacterial activity against Micrococcus luteus at 6.25 to 200 ug/ml after 24 hrs by microwell dilution method; format: functional, organism-based
Kluyveromyces marxianus = assay: Antifungal activity against Kluyveromyces marxianus at 10 mg/ml after 48 hrs by disc diffusion method; format: functional, organism-based
Escherichia coli [4] = assay: Antibacterial activity against Escherichia coli at 6.25 to 200 ug/ml after 24 hrs by microwell dilution method; format: functional, organism-based
Klebsiella aerogenes [5] = assay: Antibacterial activity against Enterobacter aerogenes at 10 mg/ml after 24 hrs by disc diffusion method; format: functional, organism-based
Hepacivirus hominis = assay: Inhibition of HCV N-terminal His-tagged NS5B RNA dependent RNA polymerase expressed in Escherichia coli DH5alpha using poly rA/U12 as primer at 200 uM after 60 mins by liquid scintillation counting
Proteus vulgaris [6] = assay: Antibacterial activity against Proteus vulgaris at 10 mg/ml after 24 hrs by disc diffusion method; format: functional, organism-based
Staphylococcus cohnii [7] = assay: Antibacterial activity against Staphylococcus cohnii at 10 mg/ml after 24 hrs by disc diffusion method; format: functional
Candida albicans = assay: Antifungal activity against Candida albicans at 10 mg/ml after 48 hrs by disc diffusion method; format: functional, organism-based
Pichia membranifaciens = assay: Antifungal activity against Pichia membranifaciens at 10 mg/ml after 48 hrs by disc diffusion method; format: functional, organism-based
[8] = test system: Acinetobacter radioresistens; assay: Antibacterial activity against Acinetobacter radioresistens at 10 mg/ml after 24 hrs by disc diffusion method; format: functional, organism-based
[9] = test system: Schwanniomyces occidentalis; assay: Antifungal activity against Schwanniomyces occidentalis at 10 mg/ml after 48 hrs by disc diffusion method; format: functional, organism-based
Photorhabdus luminescens [10] = assay: Antibacterial activity against Photorhabdus luminescens at 6.25 to 200 ug/ml after 24 hrs by microwell dilution method; format: functional, organism-based
Candida tropicalis = assay: Antifungal activity against Candida tropicalis at 10 mg/ml after 48 hrs by disc diffusion method; format: functional, organism-based
Aspergillus = assay: Antifungal activity against Aspergillus at 10 mg/ml after 72 hrs by disc diffusion method; format: functional, organism-based
Nakaseomyces glabratus = assay: Antifungal activity against Candida glabrata at 10 mg/ml after 48 hrs by disc diffusion method; format: functional, organism-based
Candida parapsilosis = assay: Antifungal activity against Candida parapsilosis at 10 mg/ml after 48 hrs by disc diffusion method; format: functional, organism-based
Pseudomonas aeruginosa [11] = assay: Antibacterial activity against Pseudomonas aeruginosa at 10 mg/ml after 24 hrs by disc diffusion method; format: functional, organism-based
Salmonella paratyphi [12] = assay: Antibacterial activity against Salmonella paratyphi at 10 mg/ml after 24 hrs by disc diffusion method; format: functional, organism-based; conditions: Salmonella enterica subsp. enterica serovar Paratyphi A
Proteus vulgaris [13] = assay: Antibacterial activity against Proteus vulgaris at 6.25 to 200 ug/ml after 24 hrs by microwell dilution method; format: functional, organism-based
Photorhabdus luminescens [14] = assay: Antibacterial activity against Photorhabdus luminescens at 10 mg/ml after 24 hrs by disc diffusion method; format: functional, organism-based
[15] = test system: Acinetobacter radioresistens; assay: Antibacterial activity against Acinetobacter radioresistens at 6.25 to 200 ug/ml after 24 hrs by microwell dilution method; format: functional, organism-based
Micrococcus luteus [16] = assay: Antibacterial activity against Micrococcus luteus at 10 mg/ml after 24 hrs by disc diffusion method; format: functional, organism-based
Escherichia coli [17] = assay: Antibacterial activity against Escherichia coli at 10 mg/ml after 24 hrs by disc diffusion method; format: functional, organism-based
Staphylococcus aureus [18] = assay: Antibacterial activity against Staphylococcus aureus at 6.25 to 200 ug/ml after 24 hrs by microwell dilution assay; format: functional, organism-based
Staphylococcus cohnii [19] = assay: Antibacterial activity against Staphylococcus cohnii at 6.25 to 200 ug/ml after 24 hrs by microwell dilution assay; format: functional, organism-based
Klebsiella aerogenes [20] = assay: Antibacterial activity against Enterobacter aerogenes at 6.25 to 200 ug/ml after 24 hrs by microwell dilution method; format: functional, organism-based
Pseudomonas aeruginosa [21] = assay: Antibacterial activity against Pseudomonas aeruginosa at 6.25 to 200 ug/ml after 24 hrs by microwell dilution method; format: functional, organism-based
Micrococcus lylae [22] = assay: Antibacterial activity against Micrococcus lylae at 6.25 to 200 ug/ml after 24 hrs by microwell dilution method; format: functional, organism-based
Micrococcus lylae [23] = assay: Antibacterial activity against Micrococcus lylae at 10 mg/ml after 24 hrs by disc diffusion method; format: functional, organism-based

## CC(C(=O)N/N=C/c1ccccc1F)c1ccc(-c2ccccc2)c(F)c1 (stereo not given)
Staphylococcus aureus [1]
  Activity: inactive
Salmonella paratyphi [2]
  Activity: inactive
Micrococcus luteus [3]
  Activity: inactive
Kluyveromyces marxianus
  Activity: inactive
Escherichia coli [4]
  Activity: inactive
Klebsiella aerogenes [5]
  Activity: inactive
Hepacivirus hominis
  inhibition: 8%
Proteus vulgaris [6]
  Activity: inactive
Staphylococcus cohnii [7]
  Activity: inactive
Candida albicans
  Activity: inactive
Pichia membranifaciens
  Activity: inactive
[8]
  Activity: inactive
[9]
  Activity: inactive
Photorhabdus luminescens [10]
  Activity: inactive
Candida tropicalis
  Activity: inactive
Aspergillus
  Activity: inactive
Nakaseomyces glabratus
  Activity: inactive
Candida parapsilosis
  Activity: inactive
Pseudomonas aeruginosa [11]
  Activity: inactive
Salmonella paratyphi [12]
  Activity: inactive
Proteus vulgaris [13]
  Activity: inactive
Photorhabdus luminescens [14]
  Activity: inactive
[15]
  Activity: inactive
Micrococcus luteus [16]
  Activity: inactive
Escherichia coli [17]
  Activity: inactive
Staphylococcus aureus [18]
  Activity: inactive
Staphylococcus cohnii [19]
  Activity: inactive
Klebsiella aerogenes [20]
  Activity: inactive
Pseudomonas aeruginosa [21]
  Activity: inactive
Micrococcus lylae [22]
  Activity: inactive
Micrococcus lylae [23]
  Activity: inactive

## CC(C(=O)NN1C(=O)CSC1c1ccc([N+](=O)[O-])cc1)c1ccc(-c2ccccc2)c(F)c1 (stereo not given)
Staphylococcus aureus [1]
  Activity: inactive
Salmonella paratyphi [2]
  Activity: inactive
Micrococcus luteus [3]
  Activity: inactive
Kluyveromyces marxianus
  Activity: inactive
Escherichia coli [4]
  Activity: inactive
Klebsiella aerogenes [5]
  Activity: inactive
Hepacivirus hominis
  inhibition: 8%
Proteus vulgaris [6]
  Activity: inactive
Staphylococcus cohnii [7]
  Activity: inactive
Candida albicans
  Activity: inactive
Pichia membranifaciens
  Activity: inactive
[8]
  Activity: inactive
[9]
  Activity: inactive
Photorhabdus luminescens [10]
  Activity: inactive
Candida tropicalis
  Activity: inactive
Aspergillus
  Activity: inactive
Nakaseomyces glabratus
  Activity: inactive
Candida parapsilosis
  Activity: inactive
Pseudomonas aeruginosa [11]
  Activity: inactive
Salmonella paratyphi [12]
  Activity: inactive
Proteus vulgaris [13]
  Activity: inactive
Photorhabdus luminescens [14]
  Activity: inactive
[15]
  Activity: inactive
Micrococcus luteus [16]
  Activity: inactive
Escherichia coli [17]
  Activity: inactive
Staphylococcus aureus [18]
  Activity: inactive
Staphylococcus cohnii [19]
  Activity: inactive
Klebsiella aerogenes [20]
  Activity: inactive
Pseudomonas aeruginosa [21]
  Activity: inactive
Micrococcus lylae [22]
  Activity: inactive
Micrococcus lylae [23]
  Activity: inactive

## CC(C(=O)N/N=C/c1ccc([N+](=O)[O-])cc1)c1ccc(-c2ccccc2)c(F)c1 (stereo not given)
Staphylococcus aureus [1]
  Activity: inactive
Salmonella paratyphi [2]
  Activity: inactive
Micrococcus luteus [3]
  Activity: inactive
Kluyveromyces marxianus
  Activity: inactive
Escherichia coli [4]
  Activity: inactive
Klebsiella aerogenes [5]
  Activity: inactive
Hepacivirus hominis
  inhibition: 8%
Proteus vulgaris [6]
  Activity: inactive
Staphylococcus cohnii [7]
  Activity: inactive
Candida albicans
  Activity: inactive
Pichia membranifaciens
  Activity: inactive
[8]
  Activity: inactive
[9]
  Activity: inactive
Photorhabdus luminescens [10]
  Activity: inactive
Candida tropicalis
  Activity: inactive
Aspergillus
  Activity: inactive
Nakaseomyces glabratus
  Activity: inactive
Candida parapsilosis
  Activity: inactive
Pseudomonas aeruginosa [11]
  Activity: inactive
Salmonella paratyphi [12]
  Activity: inactive
Proteus vulgaris [13]
  Activity: inactive
Photorhabdus luminescens [14]
  Activity: inactive
[15]
  Activity: inactive
Micrococcus luteus [16]
  Activity: inactive
Escherichia coli [17]
  Activity: inactive
Staphylococcus aureus [18]
  Activity: inactive
Staphylococcus cohnii [19]
  Activity: inactive
Klebsiella aerogenes [20]
  Activity: inactive
Pseudomonas aeruginosa [21]
  Activity: inactive
Micrococcus lylae [22]
  Activity: inactive
Micrococcus lylae [23]
  Activity: inactive

## CC(C(=O)N/N=C/c1ccc(C(F)(F)F)cc1)c1ccc(-c2ccccc2)c(F)c1 (stereo not given)
Staphylococcus aureus [1]
  Activity: inactive
Salmonella paratyphi [2]
  Activity: inactive
Micrococcus luteus [3]
  Activity: inactive
Kluyveromyces marxianus
  Activity: inactive
Escherichia coli [4]
  Activity: inactive
Klebsiella aerogenes [5]
  Activity: inactive
Hepacivirus hominis
  inhibition: 8%
Proteus vulgaris [6]
  Activity: inactive
Staphylococcus cohnii [7]
  Activity: inactive
Candida albicans
  Activity: inactive
Pichia membranifaciens
  Activity: inactive
[8]
  Activity: inactive
[9]
  Activity: inactive
Photorhabdus luminescens [10]
  Activity: inactive
Candida tropicalis
  Activity: inactive
Aspergillus
  Activity: inactive
Nakaseomyces glabratus
  Activity: inactive
Candida parapsilosis
  Activity: inactive
Pseudomonas aeruginosa [11]
  Activity: inactive
Salmonella paratyphi [12]
  Activity: inactive
Proteus vulgaris [13]
  Activity: inactive
Photorhabdus luminescens [14]
  Activity: inactive
[15]
  Activity: inactive
Micrococcus luteus [16]
  Activity: inactive
Escherichia coli [17]
  Activity: inactive
Staphylococcus aureus [18]
  Activity: inactive
Staphylococcus cohnii [19]
  Activity: inactive
Klebsiella aerogenes [20]
  Activity: inactive
Pseudomonas aeruginosa [21]
  Activity: inactive
Micrococcus lylae [22]
  Activity: inactive
Micrococcus lylae [23]
  Activity: inactive

## Cc1cc(C)c(/C=N/NC(=O)C(C)c2ccc(-c3ccccc3)c(F)c2)c(C)c1 (stereo not given)
Staphylococcus aureus [1]
  Activity: inactive
Salmonella paratyphi [2]
  Activity: inactive
Micrococcus luteus [3]
  Activity: inactive
Kluyveromyces marxianus
  Activity: inactive
Escherichia coli [4]
  Activity: inactive
Klebsiella aerogenes [5]
  Activity: inactive
Hepacivirus hominis
  inhibition: 8%
Proteus vulgaris [6]
  Activity: inactive
Staphylococcus cohnii [7]
  Activity: inactive
Candida albicans
  Activity: inactive
Pichia membranifaciens
  Activity: inactive
[8]
  Activity: inactive
[9]
  Activity: inactive
Photorhabdus luminescens [10]
  Activity: inactive
Candida tropicalis
  Activity: inactive
Aspergillus
  Activity: inactive
Nakaseomyces glabratus
  Activity: inactive
Candida parapsilosis
  Activity: inactive
Pseudomonas aeruginosa [11]
  Activity: inactive
Salmonella paratyphi [12]
  Activity: inactive
Proteus vulgaris [13]
  Activity: inactive
Photorhabdus luminescens [14]
  Activity: inactive
[15]
  Activity: inactive
Micrococcus luteus [16]
  Activity: inactive
Escherichia coli [17]
  Activity: inactive
Staphylococcus aureus [18]
  Activity: inactive
Staphylococcus cohnii [19]
  Activity: inactive
Klebsiella aerogenes [20]
  Activity: inactive
Pseudomonas aeruginosa [21]
  Activity: inactive
Micrococcus lylae [22]
  Activity: inactive
Micrococcus lylae [23]
  Activity: inactive
